Measurements as given in ChEMBL document CHEMBL1201862, “PubChem BioAssay data set” (2004).
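1) Cells in 96-well plates. 2) Compound, 48 h, 5 concentrations. 3) Linear interpolation between surrounding doses. 4) Unreached endpoint = highest concentration. Abbreviation: GI50, concentration required for 50% inhibition of growth.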 Calls of active or inactive are those of the source. No stated cut-off is given here; in the data, active = GI50 up to about 1.1 µM and inactive = higher.

Experiments:
Experiment in all cases: NCI tumour cell line growth inhibition, 48 h
HCT-116 = system: HCT-116
OVCAR-4 = system: OVCAR-4
NCI-H522 = system: NCI-H522
EKVX = system: EKVX
SF-539 = system: SF-539
UO-31 = system: UO-31
OVCAR-8 = system: OVCAR-8
SNB-19 = system: SNB-19
SK-MEL-28 = system: SK-MEL-28
COLO 205 = system: COLO 205
SN12C = system: SN12C
HOP-62 = system: HOP-62
CAKI-1 = system: CAKI-1
SF-268 = system: SF-268
NCI-H460 = system: NCI-H460
RXF 393 = system: RXF 393
SR = system: SR

Measured: GI50

c1ccc(-c2csc3ncn4cnnc4c23)cc1
inactive: HCT-116 91.4 µM | OVCAR-4 75.5 µM | NCI-H522 51.1 µM | EKVX > 100 µM | SF-539 > 100 µM | UO-31 48.3 µM | OVCAR-8 > 100 µM | SNB-19 > 100 µM | SK-MEL-28 > 100 µM | COLO 205 > 100 µM | SN12C 81.7 µM

CCCCCCCCCC(=O)CC(=O)c1c(O)cccc1O
inactive: HCT-116 33.4 µM | OVCAR-4 49.7 µM | HOP-62 85.7 µM | NCI-H522 27.8 µM | EKVX 29.2 µM | SF-539 45.4 µM | UO-31 35.1 µM | OVCAR-8 38 µM | CAKI-1 33.2 µM | SNB-19 53.1 µM | SK-MEL-28 62.7 µM | SF-268 33.8 µM | NCI-H460 34.5 µM | RXF 393 27 µM | COLO 205 18.7 µM | SN12C 24.4 µM

O=C1O[C@@H](c2ccc3c(c2)OCO3)C2C(=O)O[C@@H](c3ccc4c(c3)OCO4)C12 (stereo not given in full)
inactive: HCT-116 > 100 µM | OVCAR-4 > 100 µM | HOP-62 > 100 µM | NCI-H522 > 100 µM | EKVX > 100 µM | SF-539 > 100 µM | UO-31 > 100 µM | OVCAR-8 > 100 µM | SNB-19 > 100 µM | SK-MEL-28 > 100 µM | SF-268 > 100 µM | NCI-H460 > 100 µM | RXF 393 > 100 µM | COLO 205 > 100 µM | SN12C > 100 µM

Cc1cccc(NC(=O)CSc2nnc(-c3ccc(/N=C\c4ccc(Cl)cc4)cc3)o2)c1
inactive: HCT-116 > 100 µM | OVCAR-4 69.2 µM | HOP-62 > 100 µM | NCI-H522 38.2 µM | EKVX > 100 µM | SR > 100 µM | UO-31 > 100 µM | OVCAR-8 > 100 µM | SNB-19 > 100 µM | SK-MEL-28 > 100 µM | SF-268 > 100 µM | NCI-H460 > 100 µM | RXF 393 60.4 µM | COLO 205 > 100 µM | SN12C > 100 µM

CCCCCCCCCCCCOC(=S)NCCCC
inactive: HCT-116 18.6 µM | OVCAR-4 25.8 µM | HOP-62 35.6 µM | NCI-H522 14.5 µM | EKVX 18.3 µM | SF-539 21.3 µM | SR 19 µM | UO-31 3.37 µM | OVCAR-8 18.7 µM | SNB-19 37.4 µM | SK-MEL-28 38 µM | SF-268 26.8 µM | NCI-H460 24.4 µM | RXF 393 23.8 µM | SN12C 19.9 µM

CCOC(=O)[C@@]1(C)C=C2O[C@@H]3OC4(CCCCC4)O[C@@H]3C2=C2C(O)=CC=C(O)[C@]21C(=O)OC
inactive: HCT-116 > 68.1 µM | OVCAR-4 > 68.1 µM | HOP-62 > 68.1 µM | NCI-H522 > 68.1 µM | EKVX > 68.1 µM | UO-31 > 68.1 µM | OVCAR-8 > 68.1 µM | CAKI-1 51.4 µM | SNB-19 > 68.1 µM | SK-MEL-28 > 68.1 µM | SF-268 > 68.1 µM | NCI-H460 > 68.1 µM | COLO 205 > 68.1 µM | SN12C > 68.1 µM

COc1ccccc1C1C(Cl)C(=O)N1NC(=O)Cc1ccccc1 (stereo not given)
inactive: HCT-116 62.8 µM | OVCAR-4 75.7 µM | HOP-62 82.4 µM | NCI-H522 48.3 µM | EKVX > 100 µM | SR 26.2 µM | UO-31 32.1 µM | OVCAR-8 > 100 µM | CAKI-1 82.4 µM | SNB-19 > 100 µM | SK-MEL-28 > 100 µM | SF-268 > 100 µM | NCI-H460 > 100 µM | RXF 393 53.1 µM | COLO 205 > 100 µM | SN12C > 100 µM

CCOC(=O)NC(=O)c1cn(CCCCCCCCCCC(=O)NCCCN2CCN(CCCNC(=O)CCCCCCCCCCn3cc(C(=O)NC(=O)OCC)c(=O)[nH]c3=O)CC2)c(=O)[nH]c1=O
inactive: HCT-116 > 100 µM | HOP-62 > 10 µM | NCI-H522 > 10 µM | SF-539 > 100 µM | SR > 100 µM | UO-31 > 100 µM | OVCAR-8 > 100 µM | CAKI-1 > 10 µM | SNB-19 > 100 µM | SK-MEL-28 > 100 µM | SF-268 > 100 µM | NCI-H460 > 100 µM | COLO 205 > 100 µM | SN12C > 100 µM

Nc1nc(-c2ccc(Cl)c([N+](=O)[O-])c2)cs1
inactive: HCT-116 58.7 µM | OVCAR-4 > 100 µM | HOP-62 > 100 µM | EKVX 94.8 µM | SF-539 28.7 µM | UO-31 78.9 µM | OVCAR-8 > 100 µM | CAKI-1 80 µM | SNB-19 68.2 µM | SF-268 86.5 µM | NCI-H460 > 100 µM | RXF 393 29.3 µM | COLO 205 > 100 µM | SN12C > 100 µM

CCOC(=O)C(C)c1cc(C2(C)OCCO2)c(C)o1 (stereo not given)
inactive: HCT-116 > 100 µM | OVCAR-4 > 100 µM | HOP-62 > 100 µM | EKVX > 100 µM | SF-539 > 100 µM | UO-31 > 100 µM | OVCAR-8 > 100 µM | SNB-19 > 100 µM | SF-268 > 100 µM | NCI-H460 > 100 µM | RXF 393 > 100 µM | COLO 205 > 100 µM | SN12C > 100 µM

COC(=O)C(CCC1(C)OCCO1)=[N+]=[N-]
inactive: HCT-116 > 100 µM | OVCAR-4 > 100 µM | HOP-62 > 100 µM | NCI-H522 > 100 µM | EKVX > 100 µM | SF-539 > 100 µM | SR > 100 µM | UO-31 > 100 µM | OVCAR-8 > 100 µM | SNB-19 > 100 µM | SK-MEL-28 > 100 µM | SF-268 > 100 µM | NCI-H460 > 100 µM | RXF 393 > 100 µM | COLO 205 > 100 µM | SN12C > 100 µM

CCOC(=O)N(c1ccccc1)N(CC)C(=O)/C(C)=N/Nc1ccc([N+](=O)[O-])cc1
inactive: HCT-116 14.1 µM | OVCAR-4 19.7 µM | HOP-62 16.1 µM | NCI-H522 15.3 µM | EKVX 18.6 µM | SF-539 16.1 µM | SR 21.7 µM | UO-31 14.8 µM | OVCAR-8 17.4 µM | SNB-19 16.2 µM | SK-MEL-28 17.3 µM | SF-268 17.2 µM | RXF 393 13 µM | COLO 205 17.2 µM | SN12C 17.3 µM

c1cc(C2O[C@H]3CCCN3[C@@H]2c2ccncc2)ccn1 (stereo not given in full)
inactive: HCT-116 > 100 µM | OVCAR-4 > 100 µM | HOP-62 > 100 µM | NCI-H522 > 100 µM | EKVX > 100 µM | SF-539 > 100 µM | UO-31 > 100 µM | OVCAR-8 > 100 µM | CAKI-1 > 100 µM | SNB-19 > 100 µM | SK-MEL-28 > 100 µM | SF-268 > 100 µM | NCI-H460 > 100 µM | RXF 393 > 100 µM | COLO 205 > 100 µM | SN12C > 100 µM
